Reference: patent publication US10105382B2, “Therapy regimen and methods to sensitize cancer cells treated with epigenetic therapy to PARP inhibitors in ovarian cancer” (THE JOHNS HOPKINS UNIVERSITY, priority 2014, dated 2018)

Assays:
[1] = system: cancer cell lines derived from leukemia, breast, ovarian, and lung; experiment: Methylcellulose colony assay in multiple cancer cell lines; format: cell-based
Experimental: (§1) Multiple cancer cell lines derived from leukemia, breast, ovarian, and lung were treated with low dose DAC/5-AZA (10 nM and 5 nM) for 3 days, followed by removal of the drug for 4 days to 7 days, and subsequent plating of cells in methylcellulose to follow self-renewal capability in the presence or absence of the PARP inhibitor ABT888 (500 nM).

MCF7 = experiment: Clonogenicity of breast cancer cells MCF7; format: cell-based; conditions: 5AZA alone
Experimental: (§2) There were 7 days of recovery between the DNMTi and PARPi treatment;
as §1

MDA MB231 = experiment: Clonogenicity of breast cancer cells MDA MB231; format: cell-based; conditions: 5AZA alone
Experimental: as §2, §1

HCC1937 = experiment: Clonogenicity of breast cancer cells HCC1937; format: cell-based; conditions: 5AZA alone
Experimental: as §2, §1

A2780 = experiment: Clonogenicity of ovarian cancer cells A2780; format: cell-based; conditions: 5AZA alone
Experimental: as §2, §1

OVCAR3 = experiment: Clonogenicity of ovarian cancer cells OVCAR3; format: cell-based; conditions: 5AZA alone
Experimental: as §2, §1

PARP = conditions: treatment alone
[2] = system: KASUMI-1 (AML1-ETO positive); experiment: Colony forming (methylcellulose clonogenic) assay in KASUMI-1; format: cell-based, Human; conditions: ABT888 500 nM, single agent
Experimental: Decitabine (DAC, 21.9 mM in DMSO, Sigma-Aldrich) was further diluted in water just before treatment of the cells with 5 nM, 10 nM or 20 nM of DAC. […] DAC was added every 24 hours for 72 hours with daily medium change, then the drug was washed out and cells were allowed to recover for 4 days (unless indicated otherwise) before further use. At day 7, cells were counted with trypan blue, treated with PARPi's, set in culture in 100 mm plates at a density of 0.2×10^6 cells/mL or in methylcellulose for colony forming assay as described later. At days indicated on the figures, 5- to 10×10^6 viable cells (trypan blue exclusion) were recovered, fast frozen and stored at −80° C. for further use for protein extraction. […]
In order to study if the DAC dependent reprogramming (Tsai et al., 2012) could sensitize AML cells to PARPi's, KASUMI-1, MOLM14 and MV411 cells were first treated with increased doses of DAC (5 nM-20 nM) for three days with daily replacement of drugs and media as described previously (Tsai et al., 2012). […] Ten days later, clonogenic efficiency was measured by counting colonies with more than 40 cells and results were expressed as fold changes compared to controls (CRTL) (FIG. 2).

[3] = system: MOLM14 (heterozygote for FLT3-ITD); experiment: Colony forming (methylcellulose clonogenic) assay in MOLM14; format: cell-based, Human
Experimental: (§3) Decitabine (DAC, 21.9 mM in DMSO, Sigma-Aldrich) was further diluted in water just before treatment of the cells with 5 nM, 10 nM or 20 nM of DAC. […] DAC was added every 24 hours for 72 hours with daily medium change, then the drug was washed out and cells were allowed to recover for 4 days (unless indicated otherwise) before further use. At day 7, cells were counted with trypan blue, treated with PARPi's, set in culture in 100 mm plates at a density of 0.2×10^6 cells/mL or in methylcellulose for colony forming assay as described later. At days indicated on the figures, 5- to 10×10^6 viable cells (trypan blue exclusion) were recovered, fast frozen and stored at −80° C. for further use for protein extraction.
(§4) Colony forming assay: At Day 7 of the experiment, equal numbers of viable cells (KASUMI-1 cells, 10000 cells/dish; MV411, 5000 cells/dish; MOLM14, 1000 cells/dish; Patients #16, 2000 cells/dish, #9, #13 and #15, 5000 cells/dish, #29, 10000 cells/dish, #30, 20000 cells/dish and #34, 40000 cells/dish) were treated as described earlier and plated in triplicate in 33 mm dish on MethoCult H4435 Enriched (StemCell Technologies, Vancouver, British Columbia, Canada) for MNC, or Methylcellulose Stock Solution (R&D Systems, Minneapolis, Minn.) supplemented with culture media for cell lines according to the instructions of the manufacturer. Ten to nineteen days later, colonies were stained with 2-(4-iodophenyl)-3-(4-nitrophenyl)-5-phenlytetrazolium chloride (1 mg/mL) overnight at 37° C. and colonies containing more than 40 cells were quantified using a colony counter and Protocol3 software (Synbiosis, Frederick, Md.).
(§5) In order to study if the DAC dependent reprogramming (Tsai et al., 2012) could sensitize AML cells to PARPi's, KASUMI-1, MOLM14 and MV411 cells were first treated with increased doses of DAC (5 nM-20 nM) for three days with daily replacement of drugs and media as described previously (Tsai et al., 2012). […]

[4] = system: MV411 (homozygote for FLT3-ITD); experiment: Colony forming (methylcellulose clonogenic) assay in MV411; format: cell-based, Human
Experimental: as §3, §4, §5

[5] = system: mononuclear cells (MNC) from AML patients; experiment: Colony forming assay in primary cells from AML patients; format: cell-based, Human; conditions: ABT888 500 nM alone; 3 of 6 patients (#15, #29, #16)
PARP1 = target: T1, PARP1 (Homo sapiens, UniProt P09874); experiment: PARP1 trapping in chromatin, Western blot of chromatin extracts of X-irradiated AML cells; format: cell-based; conditions: MV411, ABT888 5 μM alone, 4Gy X-ray, FIG. 15E
T1 construct: chromatin extracts from cells X-irradiated (4Gy) to induce DSBs were examined; endogenous in cells; host or cells: MV411 and MOLM14 AML cells
T1 sequence (P09874 whole entry): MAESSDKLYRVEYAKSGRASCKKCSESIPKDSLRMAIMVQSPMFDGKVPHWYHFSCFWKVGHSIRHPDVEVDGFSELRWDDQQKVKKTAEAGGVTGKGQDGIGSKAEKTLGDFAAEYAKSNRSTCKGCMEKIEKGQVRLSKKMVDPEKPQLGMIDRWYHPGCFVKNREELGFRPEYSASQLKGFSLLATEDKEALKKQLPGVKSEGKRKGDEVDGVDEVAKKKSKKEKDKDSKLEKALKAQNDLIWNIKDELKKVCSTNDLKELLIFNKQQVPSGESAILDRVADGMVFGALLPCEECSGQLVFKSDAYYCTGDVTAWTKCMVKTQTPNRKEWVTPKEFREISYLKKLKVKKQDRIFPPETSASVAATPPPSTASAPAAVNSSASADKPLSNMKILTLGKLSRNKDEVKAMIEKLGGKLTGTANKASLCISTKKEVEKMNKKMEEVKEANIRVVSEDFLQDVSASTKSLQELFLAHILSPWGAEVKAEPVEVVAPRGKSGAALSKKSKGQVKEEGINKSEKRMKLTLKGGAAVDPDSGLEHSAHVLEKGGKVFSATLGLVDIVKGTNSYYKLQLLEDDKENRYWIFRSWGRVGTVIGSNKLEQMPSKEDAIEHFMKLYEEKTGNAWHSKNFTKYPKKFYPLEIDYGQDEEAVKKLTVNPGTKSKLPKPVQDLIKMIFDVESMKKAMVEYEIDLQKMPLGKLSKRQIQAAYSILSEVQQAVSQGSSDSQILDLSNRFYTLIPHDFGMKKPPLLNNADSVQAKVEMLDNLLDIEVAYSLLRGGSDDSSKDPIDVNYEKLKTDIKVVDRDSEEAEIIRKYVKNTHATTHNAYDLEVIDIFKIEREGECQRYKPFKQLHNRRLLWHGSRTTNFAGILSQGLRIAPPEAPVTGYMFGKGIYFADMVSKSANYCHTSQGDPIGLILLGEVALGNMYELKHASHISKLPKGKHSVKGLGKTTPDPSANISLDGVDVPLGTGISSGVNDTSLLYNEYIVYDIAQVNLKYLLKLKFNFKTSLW
Source text: Irradiation: For irradiation (IR) studies, cells were exposed to 4Gy X-Ray radiation using a Pantak HF320 X-Ray machine (250 kV peak, 13 mA; half-value layer, 1.65 mm copper) at a dose rate of 2.4 Gy/min. After IR, cells were allowed to recover from DNA damage for 4 hrs before extraction of protein.
Subcellular fractionation: To isolate the chromatin bound fraction (CH) and soluble nuclear fraction (NUC), a Subcellular Protein Fractionation kit (Thermo Fisher Scientific, Waltham, Mass.) was used by following the instructions of the manufacturer.
Immunoblotting: Immunoblotting was performed following standard procedures using 5 μg of NUC and CH fractions. Proteins were loaded onto a 4%-20% SDS-PAGE gel (Bio-Rad laboratories, Hercules, Calif.), transferred on PVDF membrane (GE Healthcare Life Sciences, Pittsburgh, Pa.) and blots were washed in Tris Buffered Saline-0.1% Tween 20 (TBST) three times, blocked in TBST-5% bovine serum albumin (TBST-BSA) for an hour at least and first antibodies in TBST-BSA were applied overnight at 4° C. on shaker. […]

γH2AX foci = γH2AX foci immunofluorescence in MV411; format: cell-based, Human
Experimental: Immunofluorescence: AML cells (0.2×10^6 cells) were cytospun onto glass slides for 5 min at 200 rpm in PBS 1× on a Shandon Cytospin 4. Cells were then fixed for 30 min in 4% paraformaldehyde, washed 3 times in DPBS (+CaCl2 and MgCl2, DPBS++), permeabilized for 10 min in permeabilization solution (50 mM NaCl, 3 mM MgCl2, 10 mM HEPES, 200 mM Sucrose and 0.5% Triton X-100 in PBS 1×), washed 3 times in DPBS (+CaCl2, +MgCl2) supplemented with BSA 1% (DPBS-BSA) and then blocked overnight in DPBS++ supplemented with 10% serum. After incubation with mouse monoclonal anti-γH2A.x (1:100, Upstate), rabbit polyclonal anti-RAD51 (1:100, Santa Cruz Biotechnologies, Dallas, Tex.), rabbit Poly-ADP-ribose (PAR, 1:200, Axxora, Farmingdale, N.Y.), or isotypes controls for an hour at 37° C. in DPBS-BSA, cells were washed and then incubated with Dylight 594-anti-mouse and Dylight 488-anti rabbit (1:200, KPL, Gaithersburg, Md.) for an hour at 37° C. prior to counterstaining with 4′,6 diamidino-2-phenylindole, dihydrochloride (DAPI, 0.3 μg/mL, Promega, Madison, Wis.) in mounting media (Vectashield, Vector Laboratories, Burlingame, Calif.). Slides were examined using a Nikon fluorescent microscope Eclipse 80i (100×/1.4 oil, Melville, N.Y.). Images of at least 50 cells/slide were captured using a CCD (charge-coupled device) camera and the imaging software NIS Elements (BR 3.00, Nikon).

MV411 = experiment: cells; conditions: Homo sapiens, MV4-11, 72 h
Experimental: (§6) Four hours prior to evaluation, 20 μL of MTS labelling reagent ([3-(4, 5-dimethylthiazol-2-yl)-5-(3-carboxymethoxyphenyl)-2-(4-sulfophenyl)-2H-tetrazolium, MTS supplemented with phenazine methosulfate, PMS, Promega, Madison, Wis.) was added to each well. The results were quantified using a VersaMax Elisa Microplate Reader at a wavelength of 490 nm and SoftMax®Pro software (Molecular Devices, Sunnyvale, Calif.). Results (fold changes compared to CRTL) are representative of the mean±SEM of three independent experiments in triplicate.
(§7) Four hours prior to evaluation, 20 μL of MTS labelling reagent ([3-(4,5-dimethylthiazol-2-yl)-5-(3-carboxymethoxyphenyl)-2-(4-sulfophenyl)-2H-tetrazolium, MTS supplemented with phenazine methosulfate, PMS, Promega, Madison, Wis.) was added to each well. The results were quantified using a VersaMax Elisa Microplate Reader at a wavelength of 490 nm and SoftMax®Pro software (Molecular Devices, Sunnyvale, Calif.). Results (Fold changes compared to CRTL) are representative of the mean±SEM of three independent experiments in triplicate.

MOLM14 = experiment: cells; conditions: Homo sapiens, MOLM-14, 72 h
Experimental: as §6, §7

normal bone marrow (NBM) = experiment: Colony survival of normal bone marrow; format: cell-based; conditions: drug concentrations used; BMN 1 nM in FIG. 18
Experimental: Colony forming assay: At Day 7 of experiment, equal numbers of viable cells (KASUMI-1 cells 10000 cells/dish; MV411 3000 cells/dish; MOLM14 1000 cells/dish; Patients #16, 2000 cells/dish, #9, #13 and #15, 5000 cells/dish, #29, 10000 cells/dish, #30, 20000 cells/dish and #34, 40000 cells/dish) were treated as described earlier and plated in triplicate in 33 mm dish on MethoCult H4435 Enriched (StemCell Technologies, Vancouver, British Columbia, Canada) for MNC, or Methylcellulose Stock Solution (R&D Systems, Minneapolis, Minn.) supplemented with culture media for cell lines according to the instructions of the manufacturer. Ten to nineteen days later, colonies were stained with 2-(4-iodophenyl)-3-(4-nitrophenyl)-5-phenlytetrazolium chloride (1 mg/mL) overnight at 37° C. and colonies containing more than 40 cells were quantified using colony counter and Protocol3 software (Synbiosis, Frederick, Md.).

[6] = BMN673 between 10 nM and 100 nM

Question: Nc1ncn([C@@H]2O[C@H](CO)[C@@H](O)[C@H]2O)c(=O)n1 [5AZA, 5-azacitidine] was tested. Which colony numbers ([1]; DAC/5-AZA (10 nM and 5 nM) for 3 days alone) did it give?
Answer: significant decrease in colony numbers

Question: And the clonogenicity (MCF7)?
Answer: decreased

Question: And the clonogenicity (MDA MB231)?
Answer: decreased

Question: What about the clonogenicity (HCC1937) of the same compound?
Answer: decreased

Question: And the clonogenicity (A2780)?
Answer: decreased

Question: And the clonogenicity (OVCAR3)?
Answer: decreased

Question: And the PARP activity (PARP)?
Answer: decreases PARP activity

Question: How did the “colony number vs CRTL” value [2] turn out when C[C@]1(c2nc3c(C(N)=O)cccc3[nH]2)CCCN1 [ABT888, Veliparib] was run?
Answer: not significantly affected

Question: What about the “colony number vs CRTL” value ([3]; ABT888 500 nM, single agent) of the same compound?
Answer: significant reduction of colony numbers

Question: What about the “colony number vs CRTL” value ([4]; ABT888 500 nM, single agent) of the same compound?
Answer: significant reduction of colony numbers

Question: What about the “responders: patients with decreased colony number” value [5] of the same compound?
Answer: 50%

Question: And the colony numbers ([1]; ABT888 500 nM alone)?
Answer: has an effect in some cases

Question: What about the “PARP trapping into chromatin” value (PARP1) of the same compound?
Answer: traps PARP into chromatin

Question: And the γH2AX foci (γH2AX foci; MV411, ABT888 5 μM alone)?
Answer: an increase in foci

Question: And the IC50 (MV411)?
Answer: > 25 µM

Question: What about the PARP activity (PARP) of the same compound?
Answer: decreases PARP activity

Question: What about the IC50 (MOLM14) of the same compound?
Answer: > 25 µM

Question: With Cn1ncnc1[C@H]1c2n[nH]c(=O)c3cc(F)cc(c23)N[C@@H]1c1ccc(F)cc1 [BMN673] as the compound, how does the “sensitivity in clonogenic assay” value ([3]; BMN673 1 nM) read?
Answer: cytotoxity occurring

Question: And the colony formation [3, 6]?
Answer: profoundly inhibited colony formation

Question: And the “sensitivity in clonogenic assay” value ([4]; BMN673 1 nM)?
Answer: barely sensitive

Question: And the colony formation [4, 6]?
Answer: profoundly inhibited colony formation

Question: And the “colony survival of normal bone marrow” value (normal bone marrow (NBM))?
Answer: not affected

Question: And the γH2AX foci (γH2AX foci; MV411, BMN673 10 nM alone)?
Answer: an increase in foci

Question: And the IC50 (MV411)?
Answer: 6.45 µM

Question: What about the IC50 (MOLM14) of the same compound?
Answer: 4.46 µM
